# Source: patent US20240368668A1, “SUBSTRATES AND BIOMARKERS OF ADAMTS7” (The Broad Institute, Inc., priority 2021, published 2024)
# System: mouse ADAMTS7
# Test: TMT10 TAILS N-terminomics, HUVEC experiment (process replicates, trypsin/AspN digest)
# Type: cell-based, human
# Details: HUVEC TAILS HC; log fold change of N-terminal peptide, Ad-mADAMTS7 WT over EQ
# From the text: ADAMTS7 Expression, Cell Culture and Preparation of the Secreted Proteins—Full-length mouse Adamts7 1-1857 (Uniprot Q68SA9, WT or E373Q catalytic mutant) with a carboxyl terminal 3xFLAG tag was used to generate custom adenoviruses as previously described. Adeno-CMV-Luciferase (Ad-Luc) from Vector Biolabs was used as a negative control. Human Coronary Artery Smooth Muscle Cells (HCA-SMC) were obtained from Lonza and expanded in Lonza SmGM-2 media in 15 cm tissue culture plates. Twenty-four hours before media collection, near confluent plates were transduced with 50 MOI adenovirus and switched to Lonza Basal SM media with volumes of 20 ml per 15 cm plate. Expression of the Flag tagged ADAMTS7 was confirmed from the media using western blot and detected using the anti-Flag M2-HRP antibody (Sigma, A8592). Collected media was processed by adding protease inhibitors (1 mM EDTA and 1 mM PMSF) and clarified by 500 g×5 min spin at 4 C to pellet cell debris. Cell media supernatants were then passed through a 0.22 um filter and kept chilled. Processed media was then concentrated 50-100× using 3 kDa Centricon Plus-70 filter unit, spun at 3,500 g×60 min at 4 C. Approximately 10% of the processed, concentrated media was set aside for total secretome proteolytic analysis. The remaining 90% of the processed, concentrated media was buffer exchanged into 50 mM HEPES pH 8.0, 150 mM NaCl (2×50 ml) using the 3 kDa Centricon Plus-70 filter unit and concentrated to >2 mg/ml to serve as input for the TAILS experiment. Secretome and TAILS input samples were stored at −80° C.
# For the first experiment, referred to as SMC1, 120 ml of media from 6×15 cm dishes was pooled from each condition (Luc, WT, EQ) and processed to produce three separate inputs for the TAILS experiment. Luc, WT and EQ inputs from the SMC1 experiment were each divided into triplicate 400 ug samples to generate technical replicate TAILS data. For the second experiment, referred to as SMC2, media was processed separately in triplicate for each condition (Luc1, Luc2, Luc3, WT1, WT2, WT3, EQ1, EQ2, EQ3) using 60 ml of media from 3×15 cm dishes for each process replicate. Inputs from the SMC2 experiment used process replicates of 300 ug each to generate TAILS data. The third experiment used input from cultured Human umbilical vein endothelial cells (HUVEC) from Lifeline Cell Technology grown in VascuLife Media and transduced in Lifeline Basal EC (+bFGF2 10 ng/ml). The HUVEC experiment used the same strategy as the SMC2 experiment, with 40 ml of media from 2×15 cm dishes for each process replicate and used 200 ug each to generate TAILS data. Inputs for process replicate experiments were restricted to the lowest concentration from the 9 parallel samples for SMC2 or HUVEC.
# TMT10 isotopic labeling and negative selection of non-labeled peptides-Sample preparation was performed based on the TAILS protocol from the Overall lab with some modifications. From a single experiment, nine parallel protein samples in 50 mM HEPES pH 8.0, 150 mM NaCl were separately denatured with guanidinium chloride (Sigma, G4505) to reach a final concentration of 2.5M guanidinium chloride and 250 mM HEPES and incubated at 65° C. for 15 min. Reduction was achieved through addition of tris(2-carboxylethyl) phosphine (TCEP) at a final concentration of […] and incubated at 65° C. for 45 min. Alkylation reaction was performed with addition of iodoacetamide (IAA, Sigma, A3221) to a final concentration of 10 mM IAA for 15 min at room temperature in the dark. Following denaturation, reduction and alkylation steps, ten percent of each of the nine parallel protein samples was removed and combined to serve as a pooled reference. Isobaric tags were added to free amine groups using the TMT10plex Isobaric Mass Tagging Kit (ThermoFisher, 90113) with TMT channels randomly assigned to the nine samples and TMT 131 assigned to the pooled reference. […]
row,Substance,logFC.mWT.over.mEQ
1,AEBP1_37 (FLEGFLSELEPEPR; listed as Homo sapiens),4.34
2,EFEMP1_124 (AVAGPEMQTGR; listed as Homo sapiens),3.31
3,FBN1_29 (LEAGNVKETR; listed as Homo sapiens),3.91
4,FLNA_1285 (LTQTGGPHVKAR; listed as Homo sapiens),3.81
5,FN1_36 (MVQPQSPVAVSQSKPGCYDNGKHYQINQQWER; listed as Homo sapiens),3.45
6,FN1_40 (QSPVAVSQSKPGCYDNGKHYQINQQWER; listed as Homo sapiens),2.96
7,FN1_886 (NQESTPVVIQQETTGTPR; listed as Homo sapiens),2.04
8,FN1_1143 (LTPGVEYVYTIQVLR; listed as Homo sapiens),3.68
9,FN1_1656 (SSSPVTGYR; listed as Homo sapiens),1.63
10,HSPG2_2331 (ANLAYPAGSTQPIR; listed as Homo sapiens),1.73
11,IGFBP7_101 (AAGGPGVSGVCVCKSR; listed as Homo sapiens),1.89
12,LOXL2_37 (FQQPAPEYHQPQAPANVAKIQLR; listed as Homo sapiens),3.48
13,LOX_124 (WFQAGYSTSR; listed as Homo sapiens),3.35
14,LTBP1_393 (LTATNFR; listed as Homo sapiens),3.33

# Same assay, conditions: HUVEC experiment; log fold change, mouse ADAMTS7 WT over EQ
row,Substance,HUVEC logFC.mWT.over.mEQ
1,EFEMP1_125 (VAGPEMQTGR; listed as Homo sapiens),2.45
2,FN1_886 (NQESTPVVIQQETTGTPR; listed as Homo sapiens),3.68
3,HSPG2_275 (LLPGSVR; listed as Homo sapiens),0.77
